This note sets out measurements from patent publication US20020165136A1, “MHC peptides and methods of use” (Thomas Jefferson University, priority 1996, published 2002).

Square brackets hold non-standard residues; d marks the D form. Ends that are not written are not given here. NMeA = CN[C@@H](C)C(=O)O

Experiment [1] concerns C6 cells. Put plainly: In vivo apoptosis assay: peptide-pretreated C6 cells in a diffusion chamber implanted s.c. in rats. Details: species or system rat. The conditions noted are these: for % Recovery (24 hs) / ability to induce apoptosis (in words) / Percent Recovery: C6 cells; for % Recovery (24 hs): peptide at 5×10^−M, 24 hs in diffusion chamber, % of original inoculum; for ability to induce apoptosis (in words): diffusion chamber, preincubation at 10^−5 M; for Percent Recovery: 24 hours in diffusion chamber; for Recovery (%): C6 rat glioblastoma cells pre-treated with 50 μM peptide 24 hours in serum-free medium, chamber in rats 24 hours. Here is the method:
(§1) The test for apoptosis in vivo was based on the use of the diffusion chamber described in detail by Resnicoff, M., et al., Cancer Res. 55: 2463-2469 (1995). According to this method, the cells are placed in a diffusion chamber that allows the passage of nutrients, antigens, antibodies, etc., but not of intact cells. The sterilized chamber is loaded with cells and then inserted into the subcutaneous tissue of rats or mice; after 24 hours, (or at other times, depending on the experiment) the chamber is removed and the number of cells in the chamber is determined with a hemocytometer, and expressed as a percentage of the original inoculum. The cells are also stained with trypan blue for viability; in the experience of the inventors, surviving cells are >95% viable.
(§2) For in vivo effects, 5×10^5 cells (C6 and CaOV-3 were both used for these studies) were placed in diffusion chambers and implanted into the s.c. tissue of the animals. Once the skin was sutured, the peptides were injected s.c. next to the chambers at the indicated concentrations in a final volume of 0.2 ml. Twenty-four hours later, the chambers were removed from the animals and the cells were quantitatively recovered.
(from gp100), involved in regression of human melanoma (Kawakami et al. 1994); 2) […], recognized by melanoma-specific human CTL lines (Cox et al, 1994); and 3) […], derived from connexin 37, that induces CTL responses against murine lung carcinoma (Mandelboim, et al., 1994). For each of these peptides, a control peptide having the same amino acid composition, but in scrambled order (controls), was also tested. C6 cells were preincubated with the peptides at a concentration of 10^−5M and transferred to the diffusion chamber (see Methods and Materials). Cell number was determined after 24 hours in the diffusion chamber transplanted into the subcutaneous tissue of rats.
Two of the three peptides were selected for further studies of the effects of mutations on the ability to induce apoptosis. Several point mutations were introduced into the peptide […]. […] Mutations at tyrosine in position 1, or the two prolines in positions 4 and 6, effectively inactivated peptide no. 2. An exception to this observation was seen when the prolines were replaced by an N-methyl amino acid. Mutations at E3 or T8 had little effect, but when both residues were mutated, recovery increased to 77%.
In order to determine the minimum concentration of these peptides that still would induce apoptosis in vivo, C6 cells were preincubated with different concentrations of the […] and D-amino acid […] peptides and recovery of viable cells was determined after 24 hours in the diffusion chamber.

In experiment [2] the test system is C6 cells. Briefly: Protection from subsequent challenge with wild type C6 cells. The class given is in vivo, rat. Here is the method: Synthetic peptide sequences listed above were tested at 5×10^−M on C6 cells. Tests for apoptosis and for protection from subsequent challenge with C6 cells are described herein. Point mutations are shown in bold characters.
Experiment [3] relates to C6 cells. Briefly: Tumorigenesis of C6 cells in nude mice. It counts as in vivo. The conditions noted are these: peptide 0.1 ml s.c. at 10^−10 to 10^−12 M, simultaneously with and next to 10^5 C6 cells, nude mice. As for the experimental part:
C6 cells pre-incubated with various concentrations (10^−12, 10^−10, 10^−8, and 10^−5 M) of the peptide YLRPGPVTA were injected simultaneously into nude mice and the time of appearance of subcutaneous tumors was determined. In parallel experiments, the percentage of cells killed in the diffusion chamber assay was determined. From the percentage of cells killed, the expected delay in the appearance of tumors in mice was calculated as described previously (Resnicoff, et al., Cancer Res. 55:3739 (1995)). […] The time of appearance of tumors is slightly more delayed than expected from the percentage of cells killed in 24 hours in the diffusion chamber assay, a phenomenon previously observed also with antisense oligodeoxynucleotides to the IGF-IR RNA (Resnicoff, et al., Cancer Res. 55:3739 (1995)).
A similar inhibition of tumorigenesis was observed using the D-amino acid peptide LRLTATGDLL. In this case, the peptide (all D-aa, sequence from Kawakami, et al. (1994)) was injected s.c. into nude mice (0.1 ml, at the indicated concentrations), simultaneously with C6 cells (10^5 cells in 0.1 ml) and next to them. The animals were followed for tumor development. The results were as follows: For C6 cells without peptide injection, the tumors appeared after 4 days; for a peptide injection at 10^−10 to 10^−12 M, tumors appeared after 11 days.
C6 cells were incubated with the synthetic peptide at the indicated final concentrations for 24 hours in serum-free medium before injection into the subcutaneous tissue of seven week-old male Dalb/c nude mice. Percentage recovery was determined using the diffusion chamber assay as described herein. Expected Delay is the number of days after injection before the tumors should become palpable, based on survival in vivo estimated by percentage of cells recovered. […] Three nude mice were used in each experimental condition.

For experiment [4], the system named is CaOV3 cells (human ovarian carcinoma cells). Put plainly: Diffusion chamber assay, CaOV3 cells in mice, peptide injected s.c. next to chamber. It counts as in vivo, mouse. The note with it: Balb/c mice, 0.2 ml of 0.05 mM peptide s.c. next to chamber, 24 hours. As for the experimental part: as §1, §2
Human ovarian carcinoma cells CaOV3 (Resnicoff, et al. (1993)) were loaded into a diffusion chamber, and the chamber was inserted into the subcutaneous tissue of mice. The animals were then injected, also subcutaneously next to the chamber, with 0.2 ml of a 0.05 mM solution of four different peptides, and the number of cells was determined 24 hours later. […] The control peptide had no effect, and the number of cells more than doubled. CaOV3 cells also undergo apoptosis, as determined by FACS analysis.
CaOV3 cells (human ovarian carcinoma cells, 5×10^5 cells) were placed without any previous treatment into diffusion chambers that were then implanted into the subcutaneous tissue of Balb/c mice. Animals were then injected subcutaneously next to the chambers either with 0.2 ml of a 0.05 mM solution of one of the three test peptides or with 0.2 ml of a 0.05 mM solution of the control peptide.

For experiment [5], the system named is C6 cells. Briefly: FACS analysis of apoptotic cells in the diffusion chamber. The conditions noted are these: C6 cells incubated in vivo for 90 minutes in diffusion chamber. Also noted: species or system rat. Here is the method: In order to determine that the loss of cells upon treatment with active peptides was due to the induction of apoptosis, the presence of apoptotic cells within the diffusion chamber was determined at several time intervals by FACS analysis (Sell, et al. (1995)). FIG. 1 represents a typical experiment using C6 cells. […] In both cases, the cells had been incubated in vivo for 90 minutes in a diffusion chamber as described herein. […] Similar results were obtained at several time intervals thereafter.
Background: A flow cytometer gives signals particle by particle.

Regarding ALEPGPVTA [point mutant of …], in the experiment with C6 cells [1], the “% Recovery (24 hs)” value amounted to 224.0%. Moreover, the “Protection from wild type cell challenge” value with C6 cells [2] is given as “no”.
With “ATVPGPELY (D-amino acids) [ATVPGPELY (D-amino acid)]”, in the experiment with C6 cells [1], the “ability to induce apoptosis (in words)” value is recorded as “as effective as the L-amino acid sequences” and the “% Recovery (24 hs)” value stood at 6.0%. The “Protection from wild type cell challenge” value in the experiment with C6 cells [2] is given as “yes”.
Turning to “LLDGTATLRL [MHC Class I peptide derived from gp100, human melanoma specific antigen]”, the “% Recovery (24 hs)” value with C6 cells [1] came to 5.0%. For the same sequence, in the experiment on C6 cells [2], the “Protection from wild type cell challenge” value was “yes”.
In the case of “LRLTATGDLL (D-amino acids) [LRLTATGDLL (D-amino acid)]”, the “ability to induce apoptosis (in words)” value with C6 cells [1] is “as effective as the L-amino acid sequences”. Also, the “Percent Recovery” value in the experiment on C6 cells [1] (peptide 10^−5 M) was 0.5%; in the experiment with C6 cells [1] (peptide 10^−8 M), 3.0%; with C6 cells [1] (peptide 10^−12 M), 6.6%; in the experiment on C6 cells [1] (peptide 10^−13 M, listed as LRLTATGDLL (D-aa)), 18.0%; in experiment [4], 6.6%. Moreover, the “% Recovery (24 hs)” value with C6 cells [1] stood at 4.9%. Also, the “time of appearance of tumors” value in the experiment on C6 cells [3] is on record as 11 days. Moreover, the “Protection from wild type cell challenge” value with C6 cells [2] is reported as “yes”.
In the case of “SMAPGNYSV [control peptide, reference compound]”, the “apoptotic cells by FACS analysis” value with C6 cells [5] is listed as “not”.
For “TLGIVCPI [HPV-16 E786-93, MHC Class I peptide derived from Human Papilloma Virus Type 16 (HPV-16) E7 protein]”, the “Recovery (%)” value in the experiment with C6 cells [1] turned out to be 27%.
Take YAEPGPVTA [point mutant of …]: in the experiment on C6 cells [1], the “% Recovery (24 hs)” value came to 186.0%. For the same sequence, in the experiment with C6 cells [2], the “Protection from wild type cell challenge” value is “no”.
The like results for YLAPGPVTA [point mutant of …] were, in that order, 7.4% and “yes”.
The like results for YLEAGPVTA [point mutant of …] were, in that order, 224.0% and “no”.
The like results for YLEPAPVTA [point mutant of …] were, in that order, 70.0% and “no”.
For YLEPGAVTA, the “% Recovery (24 hs)” value in the experiment with C6 cells [1] stood at 260.0%. Further, the “Protection from wild type cell challenge” value in the experiment on C6 cells [2] is listed as “no”. For the same sequence, the “Percent Recovery” value in experiment [4] amounted to 280%.
On to YLEPGPATA [point mutant of …], for which the “% Recovery (24 hs)” value in the experiment on C6 cells [1] was 11.0%. Also, in the experiment with C6 cells [2], the “Protection from wild type cell challenge” value is listed as “yes”.
The like results for YLEPGPVAA [point mutant of …] were, in that order, 9.3% and “yes”.
On to YLEPGPVKA [point mutant of …], for which the “% Recovery (24 hs)” value in the experiment with C6 cells [1] is 12.0%. Further, the “Protection from wild type cell challenge” value in the experiment on C6 cells [2] is “yes”.
“YLEPGPVTA [MHC Class I peptide recognized by melanoma-specific human CTL lines]”: in the experiment with C6 cells [5], the “apoptotic cells by FACS analysis” value is listed as “Apoptotic cells are detectable”. For the same sequence, the “% Recovery (24 hs)” value in the experiment with C6 cells [1] came to 3.0%. In addition, the “Protection from wild type cell challenge” value in the experiment on C6 cells [2] is given as “yes”. The “Percent Recovery” value in experiment [4] worked out at 0.2%.
On to “YLEXGXVTA (X: N-Methyl-A) (YLE[NMeA]G[NMeA]VTA) [… with prolines replaced by an N-methyl amino acid]”, for which, in the experiment on C6 cells [1], the “% Recovery (24 hs)” value was 6.5%. The “Protection from wild type cell challenge” value with C6 cells [2] is given as “yes”.
The corresponding values for “YLRPGPVRA [double mutant (E3 and T8) of …]” are 77.0% and “no”.
As for “YMLDLQPETT [HPV-16 E711-20, MHC Class I peptide derived from Human Papilloma Virus Type 16 (HPV-16) E7 protein]”, the “Recovery (%)” value in the experiment with C6 cells [1] is 13%.
